The source of these data is patent US8618289B2 (Ambit Biosciences Corporation, priority 2008, dated 2013).

As usually defined, the Kd is the constant that tells how readily two partners part at equilibrium. The term IC50 denotes the concentration at which inhibition is half-maximal. What is called EC50 is the concentration that produces a half-maximal response.

Structures can show the parent of a compound that is named as a salt. Where two headings read alike, the source gives them in different places. A value given as a limit tells only on which side of the number the result lay.

Experiment [1] has as its target T1, RAF kinases (Homo sapiens, UniProt P04049). The note with it: read-out: RAF1 Kd; RAF1.
The target in experiment [2] is RAF kinases (Homo sapiens, UniProt P15056). The conditions noted are these: read-out: BRAF WT Kd; BRAF WT.
Experiment [3] addresses T2, RAF kinases (Homo sapiens, UniProt P15056, V600E). The conditions noted are these: read-out: BRAF V600E Kd; BRAF V600E.
Experiment [4] relates to MEK1 phosphorylation in the A375 human melanoma cell line. Briefly: cells. The note with it: A-375, read-out: pMEK IC50.
Experimental: A375 cells (from American Type Culture Collection) were plated at 50,000 cells per well in DMEM (Mediatech) with 10% fetal bovine serum (Omega Scientific) into a 96 well plate and incubated overnight in a 37° C. incubator with 10% CO2. The cells were then washed with PBS and the medium replaced with 0.5% FBS for incubation overnight. […] The cells were incubated with compound or control for two hours at 37° C. The compound solution was aspirated off and the cells washed with cold PBS. […] The plate was centrifuged for 30 minutes to pellet out the cell debris. The cleared lysates were transferred to a 96-well Nunc plate and the ELISA protocol described by the manufacturer in Catalog #KHO0321 or KHO0291 was followed.
The next experiment has as its system A375 cells. The experiment can be described thus: cells. The conditions noted are these: Homo sapiens, A-375, read-out: A375 Viability EC50.
Experiment [5] addresses T1, RAF kinases. The experiment can be described thus: biochemical.
Experiment [6] has as its target T2, RAF kinases. The experiment can be described thus: biochemical.

Chain of RAF kinases (Homo sapiens, UniProt P15056) (P15056 whole entry): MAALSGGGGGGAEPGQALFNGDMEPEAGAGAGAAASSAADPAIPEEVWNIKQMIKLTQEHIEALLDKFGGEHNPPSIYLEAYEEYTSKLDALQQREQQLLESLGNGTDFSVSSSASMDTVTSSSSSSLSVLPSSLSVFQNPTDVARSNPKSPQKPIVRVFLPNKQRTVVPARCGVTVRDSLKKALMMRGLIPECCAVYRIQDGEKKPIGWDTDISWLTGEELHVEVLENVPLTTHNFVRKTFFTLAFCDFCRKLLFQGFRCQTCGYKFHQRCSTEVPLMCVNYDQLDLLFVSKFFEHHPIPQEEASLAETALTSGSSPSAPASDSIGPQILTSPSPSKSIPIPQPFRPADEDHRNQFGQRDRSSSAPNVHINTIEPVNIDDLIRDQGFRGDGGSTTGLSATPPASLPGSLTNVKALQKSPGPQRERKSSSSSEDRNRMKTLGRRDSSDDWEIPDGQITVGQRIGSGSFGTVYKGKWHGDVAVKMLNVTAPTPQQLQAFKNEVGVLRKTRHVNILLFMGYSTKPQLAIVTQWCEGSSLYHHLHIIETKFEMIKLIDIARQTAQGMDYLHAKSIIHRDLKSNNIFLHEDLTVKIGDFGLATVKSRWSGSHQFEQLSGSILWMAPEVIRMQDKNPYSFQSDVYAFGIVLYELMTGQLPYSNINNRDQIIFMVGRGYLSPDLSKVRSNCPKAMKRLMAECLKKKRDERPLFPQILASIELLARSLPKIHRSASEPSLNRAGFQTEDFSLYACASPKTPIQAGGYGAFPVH
T2 sequence (P15056 whole entry V600E): as the sequence (P15056 whole entry) above, with V600E counted along it
T1 sequence (P04049 whole entry): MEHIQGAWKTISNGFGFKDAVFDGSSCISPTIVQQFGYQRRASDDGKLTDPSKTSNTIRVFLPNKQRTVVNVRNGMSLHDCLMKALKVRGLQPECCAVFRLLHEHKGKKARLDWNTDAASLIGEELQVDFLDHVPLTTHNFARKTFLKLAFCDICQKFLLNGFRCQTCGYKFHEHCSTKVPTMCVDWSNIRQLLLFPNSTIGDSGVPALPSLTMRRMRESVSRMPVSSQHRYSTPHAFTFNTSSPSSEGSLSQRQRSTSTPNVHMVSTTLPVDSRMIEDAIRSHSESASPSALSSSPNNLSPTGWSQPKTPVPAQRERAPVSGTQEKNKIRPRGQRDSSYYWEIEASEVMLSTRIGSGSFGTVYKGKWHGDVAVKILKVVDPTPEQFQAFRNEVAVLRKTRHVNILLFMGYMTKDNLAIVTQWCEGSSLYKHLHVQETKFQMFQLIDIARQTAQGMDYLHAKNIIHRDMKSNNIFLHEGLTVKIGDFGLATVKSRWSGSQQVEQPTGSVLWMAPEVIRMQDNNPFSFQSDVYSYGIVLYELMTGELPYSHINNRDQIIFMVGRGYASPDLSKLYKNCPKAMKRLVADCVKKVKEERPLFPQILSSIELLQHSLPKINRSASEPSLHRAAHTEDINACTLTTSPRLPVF
Experimental for A375 cells: The following day, the medium was replaced with 0.5% FBS in M3 for overnight incubation. […] The cells were incubated with compound or control for 72 hours at 37° C. under 10% CO2. Following incubation, Cell Titer Blue reagent (Promega) was added to each well containing compounds or controls, and then incubated for 3 hours at 37° C. under 10% CO2. Proliferation was measured by fluorescence with excitation at 560 nm and emission at 590 nm using SoftMax Pro.

In the case of `COc1cc2ncnc(Sc3cccc(NC(=O)Nc4cc(C(C)(C)C)nn4-c4ccc(C(C)(C)C)cc4)c3)c2cc1OC` [Ex 370, 1-(3-tert-butyl-1-(4-tert-butylphenyl)-1H-pyrazol-5-yl)-3-(3-(6,7-dimethoxyquinazolin-4-ylthio)phenyl)urea], the Kd on RAF kinases [1] is over 1000 nM; at RAF kinases [2], over 1000 nM; at RAF kinases [3] it was under 250 nM. The IC50 in experiment [4] is under 250 nM.
With `CCOC(=O)Cn1nc(C(C)(C)C)cc1NC(=O)Nc1cccc(Oc2ncnc3cc(OCCOC)c(OC)cc23)c1` [Ex 224, ethyl 2-[3-tert-butyl-5-(3-{3-[6-methoxy-7-(2-methoxyethoxy)quinazolin-4-yloxy]phenyl}ureido)-1H-pyrazol-1-yl]acetate hydrochloride], the Kd at RAF kinases [1], at RAF kinases [2] and at RAF kinases [3] was over 1000 nM each time. The IC50 in experiment [4] is over 1000 nM. Moreover, the 50% effective concentration (EC50) in the experiment on A375 cells is over 1000 nM.
Turning to `COCCOc1cc2ncnc(Oc3cccc(NC(=O)Nc4cc(C(F)(F)F)n(C)n4)c3)c2cc1OC` [Ex 208, 1-{3-[6-methoxy-7-(2-methoxyethoxy)quinazolin-4-yloxy]phenyl}-3-[1-methyl-5-(trifluoromethyl)-1H-pyrazol-3-yl]urea], the Kd on RAF kinases [1], at RAF kinases [2] and on RAF kinases [3] was under 250 nM in each case. In addition, the 50% inhibitory concentration (IC50) in experiment [4] was over 1000 nM. Also, the EC50 in the experiment on A375 cells was over 1000 nM.
Turning to `COc1cc2ncnc(Oc3cccc(NC(=O)Nc4cc(C(C)(CF)CF)on4)c3F)c2cc1OC` [Ex 297, 1-(5-(1,3-difluoro-2-methylpropan-2-yl)isoxazol-3-yl)-3-(3-(6,7-dimethoxyquinazolin-4-yloxy)-2-fluorophenyl)urea], the Kd on RAF kinases [1], on RAF kinases [2] and at RAF kinases [3] was under 250 nM throughout. In addition, the IC50 in experiment [4] lay in the range of 250 to 500 nM. For the same compound, the EC50 with A375 cells is 250 to 500 nM.
Turning to `CCOc1cc2ncnc(Oc3cccc(NC(=O)Nc4cc(C(C)(C)F)no4)c3)c2cc1OC` [Ex 385, 1-(3-(7-ethoxy-6-methoxyquinazolin-4-yloxy)phenyl)-3-(3-(2-fluoropropan-2-yl)isoxazol-5-yl)urea], the Kd on RAF kinases [1], on RAF kinases [2] and at RAF kinases [3] was under 250 nM throughout. Besides, in experiment [4], the IC50 lay in the range of 250 to 500 nM. In addition, in the experiment with A375 cells, the EC50 lay in the range of 250 to 500 nM.
As for `COc1cc2ncnc(Oc3cc(NC(=O)Nc4cc(C(C)(C)C)on4)c(F)cc3F)c2cc1OC` [Ex 270, 1-(5-tert-butylisoxazol-3-yl)-3-(5-(6,7-dimethoxyquinazolin-4-yloxy)-2,4-difluorophenyl)urea], the Kd at RAF kinases [1], on RAF kinases [2] and at RAF kinases [3] was under 250 nM in each case. Also, the IC50 in experiment [4] was under 250 nM. The EC50 with A375 cells is under 250 nM.
In the case of `COc1cc2ncnc(Sc3cccc(NC(=O)Nc4cc(C(C)(C)C)nn4Cc4ccccc4)c3)c2cc1OC` [Ex 358, 1-(1-benzyl-3-tert-butyl-1H-pyrazol-5-yl)-3-(3-(6,7-dimethoxyquinazolin-4-ylthio)phenyl)urea], the dissociation constant (Kd) was over 1000 nM on RAF kinases [1], over 1000 nM on RAF kinases [2] and under 250 nM on RAF kinases [3]. For the same compound, in experiment [4], the IC50 was 250 to 500 nM.
For `COc1cc2ncnc(Oc3ccc(Cl)c(NC(=O)Nc4cc(C(C)(C)C)nn4-c4ccccc4)c3)c2cc1OC` [Ex 301, 1-(3-tert-butyl-1-phenyl-1H-pyrazol-5-yl)-3-(2-chloro-5-(6,7-dimethoxyquinazolin-4-yloxy)phenyl)urea], the Kd on RAF kinases [1], at RAF kinases [2] and on RAF kinases [3] was over 1000 nM in each case. Also, the IC50 in experiment [4] was under 250 nM. In addition, the EC50 with A375 cells was in the range of 250 to 500 nM.
Turning to `COCCOc1cc2ncnc(Oc3cccc(NC(=O)Nc4cc(C(C)C)on4)c3)c2cc1OC` [Ex 206, 1-(5-isopropylisoxazol-3-yl)-3-(3-(6-methoxy-7-(2-methoxyethoxy)quinazolin-4-yloxy)phenyl)urea], the Kd at RAF kinases [1], at RAF kinases [2] and at RAF kinases [3] was under 250 nM each time. Further, the IC50 in experiment [4] lay within 500 to 1000 nM. Further, the EC50 with A375 cells is over 1000 nM.
`COc1cc2ncnc(Oc3cccc(NC(=O)Nc4cc(C(C)(C)C)nn4-c4ccccc4)c3F)c2cc1OC` [Ex 295, 1-(3-tert-butyl-1-phenyl-1H-pyrazol-5-yl)-3-(3-(6,7-dimethoxyquinazolin-4-yloxy)-2-fluorophenyl)urea]: the Kd at RAF kinases [2] is over 1000 nM; on RAF kinases [3], under 250 nM; on RAF kinases [5] it was 500 to 1000 nM. In addition, in experiment [4], the IC50 is 500 to 1000 nM. Moreover, in the experiment with A375 cells, the EC50 was over 1000 nM.
On to `COCCOc1cc2ncnc(Oc3cccc(NC(=O)Nc4ccc(C(F)(F)F)c(OC)c4)c3)c2cc1OC` [Ex 223, 1-(3-methoxy-4-(trifluoromethyl)phenyl)-3-(3-(6-methoxy-7-(2-methoxyethoxy)quinazolin-4-yloxy)phenyl)urea], for which the Kd was over 1000 nM on RAF kinases [2], 500 to 1000 nM at RAF kinases [5] and 250 to 500 nM on RAF kinases [6]. Also, the IC50 in experiment [4] is over 1000 nM. Further, the EC50 with A375 cells was over 1000 nM.
As to `COc1cc2c(Oc3cccc(NC(=O)Nc4cc(C(C)(C)F)no4)c3)ncnc2cc1OCCN1CCOCC1` [Ex 251, 1-(3-(2-fluoropropan-2-yl)isoxazol-5-yl)-3-(3-(6-methoxy-7-(2-morpholinoethoxy)quinazolin-4-yloxy)phenyl)urea], the figures for the Kd at RAF kinases [2], at RAF kinases [3] and at RAF kinases [5] were under 250 nM, under 250 nM and 250 to 500 nM, respectively. For the same compound, the half-inhibitory concentration (IC50) in experiment [4] lay in the range of 250 to 500 nM. Further, the EC50 with A375 cells was over 1000 nM.
For the compound `COc1cc2ncnc(Oc3cccc(NC(=O)Nc4cc(C(C)(C)C)nn4-c4cccc(F)c4)c3)c2cc1OC` [Ex 359, 1-(3-tert-butyl-1-(3-fluorophenyl)-1H-pyrazol-5-yl)-3-(3-(6,7-dimethoxyquinazolin-4-yloxy)phenyl)urea], the results for the equilibrium dissociation constant (Kd) at RAF kinases [1], at RAF kinases [2] and on RAF kinases [3] were over 1000 nM, over 1000 nM and under 250 nM, respectively. In addition, the IC50 in experiment [4] is under 250 nM.
As for `COc1cc2ncnc(Oc3cccc(NC(=O)Nc4cc(C(C)(C)C)nn4-c4ccccc4)c3C)c2cc1OC` [Ex 289, 1-(3-tert-butyl-1-phenyl-1H-pyrazol-5-yl)-3-(3-(6,7-dimethoxyquinazolin-4-yloxy)-2-methylphenyl)urea], the Kd at RAF kinases [2] is over 1000 nM; at RAF kinases [3] it was under 250 nM; on RAF kinases [5], 500 to 1000 nM. The 50% inhibitory concentration (IC50) in experiment [4] was under 250 nM. In addition, the EC50 in the experiment with A375 cells lay within 500 to 1000 nM.
`COc1cc2ncnc(Sc3cccc(NC(=O)Nc4cc(C(C)(C)F)no4)c3)c2cc1OCCCN1CCS(=O)(=O)CC1` [Ex 245, 1-(3-(2-fluoropropan-2-yl)isoxazol-5-yl)-3-(3-(7-methoxy-6-(4,4-dioxo-3-thiomorpholinopropoxy)quinazolin-4-ylthio)phenyl)urea]: the Kd is under 250 nM at RAF kinases [2], under 250 nM at RAF kinases [3] and 250 to 500 nM on RAF kinases [5]. Also, the IC50 in experiment [4] was under 250 nM. The EC50 in the experiment on A375 cells was over 1000 nM.
For the compound `COc1cc2ncnc(Oc3cc(NC(=O)Nc4cc(C(C)(CF)CF)on4)ccc3F)c2cc1OC` [Ex 294, 1-(5-(1,3-difluoro-2-methylpropan-2-yl)isoxazol-3-yl)-3-(3-(6,7-dimethoxyquinazolin-4-yloxy)-4-fluorophenyl)urea], the Kd on RAF kinases [1], at RAF kinases [2] and on RAF kinases [3] was under 250 nM throughout. The half-maximal inhibitory concentration (IC50) in experiment [4] was under 250 nM.
In the case of `COCCOc1cc2ncnc(Sc3cccc(NC(=O)Nc4cc(C(C)(C)C)nn4-c4ccccc4)c3)c2cc1OC` [Ex 236, 1-(3-tert-butyl-1-phenyl-1H-pyrazol-5-yl)-3-(3-(6-methoxy-7-(2-methoxyethoxy)quinazolin-4-ylthio)phenyl)urea], the Kd at RAF kinases [1], at RAF kinases [2] and at RAF kinases [3] was over 1000 nM each time. The IC50 in experiment [4] is under 250 nM.
As for `COc1cc2ncnc(Sc3cccc(NC(=O)Nc4cc(C(C)(C)C#N)no4)c3)c2cc1OC` [Ex 381, 1-(3-(2-cyanopropan-2-yl)isoxazol-5-yl)-3-(3-(6,7-dimethoxyquinazolin-4-ylthio)phenyl)urea], the Kd on RAF kinases [1], at RAF kinases [2] and on RAF kinases [3] was under 250 nM in each case. The IC50 in experiment [4] is under 250 nM.
`COc1cc2ncnc(Oc3cc(NC(=O)Nc4cc(C(C)(C)C(F)(F)F)on4)ccc3F)c2cc1OC` [Ex 266, 1-(3-(6,7-dimethoxyquinazolin-4-yloxy)-4-fluorophenyl)-3-(5-(1,1,1-trifluoro-2-methylpropan-2-yl)isoxazol-3-yl)urea]: the Kd at RAF kinases [1], on RAF kinases [2] and on RAF kinases [3] was under 250 nM each time. Besides, the IC50 in experiment [4] is under 250 nM.
Take `COc1cc2ncnc(Sc3cccc(NC(=O)Nc4cc(C5CCC5)nn4-c4ccccc4)c3)c2cc1OC` [Ex 356, 1-(3-cyclobutyl-1-phenyl-1H-pyrazol-5-yl)-3-(3-(6,7-dimethoxyquinazolin-4-ylthio)phenyl)urea]: the dissociation constant Kd is over 1000 nM on RAF kinases [2], under 250 nM at RAF kinases [3] and 500 to 1000 nM at RAF kinases [5]. Further, in experiment [4], the half-maximal inhibitory concentration (IC50) is 250 to 500 nM. Further, the EC50 in the experiment on A375 cells is under 250 nM.
Turning to `COCCOc1cc2ncnc(Oc3cccc(NC(=O)Nc4cc(C(C)(C)C)nn4-c4ccc(C)cc4)c3)c2cc1OC` [Ex 276, 1-(3-tert-butyl-1-p-tolyl-1H-pyrazol-5-yl)-3-(3-(6-methoxy-7-(2-methoxyethoxy)quinazolin-4-yloxy)phenyl)urea], the Kd was over 1000 nM on RAF kinases [1], over 1000 nM at RAF kinases [2] and under 250 nM on RAF kinases [3]. Further, in experiment [4], the IC50 was under 250 nM.
